Results as given in PubChem BioAssay AID1745844 (Carcinogenic Potency Database (CPDB), 2022).
Activity calls are given as the source filed them. No rule for the calls is given here.

System: rodent lifetime carcinogenesis bioassay, tumor incidence TD50
Assay: chronic cancer bioassays in animals – CPDB, compiled studies (AID 1745844)
Conditions: in feed

ClC1=C(Cl)[C@]2(Cl)[C@@H]3[C@@H]4C[C@@H]([C@H]5O[C@@H]45)[C@@H]3[C@@]1(Cl)C2(Cl)Cl
TD50 (hamster, strain Syrian Golden, females, site: any site (literature study), lesion: several types, types named in the paper, dosed 100 weeks, study length 114 weeks): 355 mg/kg/day (inactive)
TD50 (hamster, strain Syrian Golden, females, site: liver, lesion: hepatoma, dosed 100 weeks, study length 114 weeks): 176 mg/kg/day (inactive)
carcinogen call (hamster, strain Syrian Golden, females, site: lung, lesion: one or several types, types not named, dosed 100 weeks, study length 114 weeks): negative (inactive)
TD50 (hamster, strain Syrian Golden, males, site: any site (literature study), lesion: several types, types named in the paper, dosed 114 weeks, study length 114 weeks): 69.9 mg/kg/day (inactive)
TD50 (hamster, strain Syrian Golden, males, site: liver, lesion: hepatoma, dosed 114 weeks, study length 114 weeks): 198 mg/kg/day (inactive)
TD50 (hamster, strain Syrian Golden, males, site: lung, lesion: adenoma, dosed 114 weeks, study length 114 weeks): 732 mg/kg/day (inactive)
carcinogen call (mouse, strain B6C3F1, females, site: any site (literature study), lesion: several types, types named in the paper, dosed 80 weeks, study length 91 weeks): negative (inactive)
TD50 (mouse, strain B6C3F1, females, site: liver, lesion: hepatocellular adenoma + hepatocellular carcinoma + neoplastic nodule, dosed 80 weeks, study length 91 weeks): 1.09 mg/kg/day
TD50 (mouse, strain B6C3F1, females, site: lung, lesion: alveolar/bronchiolar adenoma + alveolar/bronchiolar carcinoma, dosed 80 weeks, study length 91 weeks): 5.05 mg/kg/day
TD50 (mouse, strain B6C3F1, males, site: any site (literature study), lesion: several types, types named in the paper, dosed 80 weeks, study length 91 weeks): 1.06 mg/kg/day (inactive)
TD50 (mouse, strain B6C3F1, males, site: liver, lesion: hepatocellular adenoma + hepatocellular carcinoma + neoplastic nodule, dosed 80 weeks, study length 91 weeks): 1.04 mg/kg/day
TD50 (mouse, strain B6C3F1, males, site: liver, lesion: hepatocellular carcinoma, dosed 80 weeks, study length 89 weeks): 1.35 mg/kg/day
TD50 (mouse, strain B6C3F1, males, site: lung, lesion: alveolar/bronchiolar adenoma + alveolar/bronchiolar carcinoma, dosed 80 weeks, study length 91 weeks): 24.7 mg/kg/day
TD50 (mouse, strain C3HeB/Fe, both sexes, site: any site (literature study), lesion: benign tumor, dosed 104 weeks, study length 104 weeks): 3.1 mg/kg/day
TD50 (mouse, strain C3HeB/Fe, both sexes, site: liver, lesion: hepatocellular adenoma, dosed 104 weeks, study length 104 weeks): 4.09 mg/kg/day
TD50 (mouse, strain C3HeB/Fe, both sexes, site: liver, lesion: hepatocellular carcinoma, dosed 104 weeks, study length 104 weeks): 167 mg/kg/day
TD50 (mouse, strain C3HeB/Fe, both sexes, site: liver, lesion: hepatoma, dosed 104 weeks, study length 104 weeks): 3.08 mg/kg/day
TD50 (mouse, strain CF-1, females, site: liver, lesion: liver-cell tumor, type B, dosed 90 weeks, study length 90 weeks): 2.59 mg/kg/day
TD50 (mouse, strain CF-1, females, site: liver, lesion: liver-cell tumor, type B, dosed 106 weeks, study length 106 weeks): 3.96 mg/kg/day
TD50 (mouse, strain CF-1, females, site: liver, lesion: liver-cell tumor, type B, dosed 108 weeks, study length 128 weeks): 9.72 mg/kg/day
TD50 (mouse, strain CF-1, females, site: liver, lesion: liver-cell tumor, type B, dosed 122 weeks, study length 138 weeks): 1.96 mg/kg/day
TD50 (mouse, strain CF-1, females, site: liver, lesion: liver-cell tumor, type B, dosed 128 weeks, study length 128 weeks): 12.1 mg/kg/day
TD50 (mouse, strain CF-1, females, site: liver, lesion: liver-cell tumor, dosed 110 weeks, study length 110 weeks): 1.59 mg/kg/day
TD50 (mouse, strain CF-1, females, site: liver, lesion: several types, types named in the paper, dosed 90 weeks, study length 90 weeks): 1.05 mg/kg/day
TD50 (mouse, strain CF-1, females, site: liver, lesion: several types, types named in the paper, dosed 106 weeks, study length 106 weeks): 1.16 mg/kg/day
TD50 (mouse, strain CF-1, females, site: liver, lesion: several types, types named in the paper, dosed 108 weeks, study length 128 weeks): 1.49 mg/kg/day
TD50 (mouse, strain CF-1, females, site: liver, lesion: several types, types named in the paper, dosed 110 weeks, study length 110 weeks): 0.567 mg/kg/day
TD50 (mouse, strain CF-1, females, site: liver, lesion: several types, types named in the paper, dosed 122 weeks, study length 138 weeks): 0.642 mg/kg/day
TD50 (mouse, strain CF-1, females, site: liver, lesion: several types, types named in the paper, dosed 128 weeks, study length 128 weeks): 3.11 mg/kg/day
carcinogen call (mouse, strain CF-1, females, site: lung, lesion: adenoma, dosed 90 weeks, study length 90 weeks): negative (inactive)
TD50 (mouse, strain CF-1, females, site: lung, lesion: adenoma, dosed 106 weeks, study length 106 weeks): 5.69 mg/kg/day (inactive)
carcinogen call (mouse, strain CF-1, females, site: lung, lesion: adenoma, dosed 108 weeks, study length 128 weeks): negative (inactive)
TD50 (mouse, strain CF-1, females, site: lung, lesion: adenoma, dosed 122 weeks, study length 138 weeks): 0.606 mg/kg/day (inactive)
carcinogen call (mouse, strain CF-1, females, site: lung, lesion: adenoma, dosed 128 weeks, study length 128 weeks): negative (inactive)
carcinogen call (mouse, strain CF-1, females, site: lung, lesion: carcinoma, dosed 90 weeks, study length 90 weeks): negative (inactive)
carcinogen call (mouse, strain CF-1, females, site: lung, lesion: carcinoma, dosed 106 weeks, study length 106 weeks): negative (inactive)
carcinogen call (mouse, strain CF-1, females, site: lung, lesion: carcinoma, dosed 108 weeks, study length 128 weeks): negative (inactive)
